Like-named read-outs stand apart in the source and are kept apart here.
Experiments:
[1] = system: wild-type VSV-G-3CL^pro-L; assay: microbe, parasite or virus in culture; type: cell-based
[2] = system: recombinant wt SARS-CoV-2-mCherry (rWA1); assay: microbe, parasite or virus in culture; type: cell-based

With CC(C)(C)[C@H](NC(=O)C(F)(F)F)C(=O)N1C[C@H]2[C@@H]([C@H]1C(=O)N[C@H](C#N)C[C@@H]1CCNC1=O)C2(C)C [Nirmatrelvir, nirmatrelvir] the replication inhibited [1] was 10^6 fold, the IC50 ([1]; Vesicular stomatitis virus, BHK-21, 24 h, read-out: half maximal inhibitor concentration (IC50) of virus replication) was ~185 nM and the IC50 ([2]; Severe acute respiratory syndrome coronavirus 2, read-out: IC50 48 hpi) was 8.68 nM. For the same compound, the IC50 ([2]; Severe acute respiratory syndrome coronavirus 2, read-out: IC50 72 hpi) was 8.51 nM.
